Earlier results on 1 molecule are cited in patent publication US20140171495A1, “STABLE PHARMACEUTICAL FORMULATION OF CABAZITAXEL” (Yung Shin Pharm.Ind. Co., Ltd., priority 2012, published 2014).

For `CO[C@H]1C(=O)[C@]2(C)[C@@H](OC)C[C@H]3OC[C@@]3(OC(C)=O)[C@H]2[C@H](OC(=O)c2ccccc2)[C@]2(O)C[C@H](OC(=O)[C@H](O)[C@@H](NC(=O)OC(C)(C)C)c3ccccc3)C(C)=C1C2(C)C` [Cabazitaxel, (2α,5β,7β,10β,13α)-4-acetoxy-13-({(2R,3S)-3[(tertbutoxycarbonyl)amino]-2-hydroxy-3-phenylpropanoyl}oxy)-1-hydroxy-7,10-dimethoxy-9-oxo-5,20-epoxytax-11-en-2-yl benzoate-propan-2-one(1:1)], for the setting “alcohol”, the solubility in alcohol entry is on record as “soluble”. The solubility in water entry (water) was “practically insoluble”.
